Data taken from ChEMBL document CHEMBL1201862, “PubChem BioAssay data set” (2004).
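Exposure lasted 48 hours, with cells grown in 96-well plates and compounds tested at five concentrations. Here, GI50 denotes the concentration required for 50% inhibition of growth.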 Calls of active or inactive are those of the source. Cut-off read from the data, not from the text of the source: active = GI50 up to about 1.1 µM and inactive = higher.

Tests used:
Assay in all cases: NCI-60 cell line screen, 48 h
[1] = test system: SW-620
[2] = test system: LOX IMVI
[3] = test system: UO-31
[4] = test system: HOP-62
[5] = test system: U-251
[6] = test system: SR
[7] = test system: NCI-H226
[8] = test system: M19-MEL
[9] = test system: SK-OV-3
[10] = test system: SK-MEL-28
[11] = test system: SF-539
[12] = test system: OVCAR-4
[13] = test system: HT-29
[14] = test system: NCI-H23
[15] = test system: SNB-19
[16] = test system: SF-295
[17] = test system: HCT-15
[18] = test system: NCI-H522

| SMILES | GI50 [1] | GI50 [2] | GI50 [3] | GI50 [4] | GI50 [5] | GI50 [6] | GI50 [7] | GI50 [8] | GI50 [9] | GI50 [10] | GI50 [11] | GI50 [12] | GI50 [13] | GI50 [14] | GI50 [15] | GI50 [16] | GI50 [17] [µM] | GI50 [18] |
| --- | --- | --- | --- | --- | --- | --- | --- | --- | --- | --- | --- | --- | --- | --- | --- | --- | --- | --- |
| O=C1c2ccccc2C2(O)Oc3cccc(O)c3C12O (configuration not stated) | > 100 µM (inactive) | > 100 µM (inactive) | > 100 µM (inactive) | > 100 µM (inactive) | > 100 µM (inactive) | > 100 µM (inactive) | > 100 µM (inactive) | > 100 µM (inactive) | > 100 µM (inactive) | > 100 µM (inactive) | > 100 µM (inactive) | > 100 µM (inactive) | > 100 µM (inactive) | > 100 µM (inactive) | > 100 µM (inactive) | > 100 µM (inactive) | > 100 | > 100 µM (inactive) |
| COc1ccccc1NC(=O)C(=O)C(c1cnc2ccc([N+](=O)[O-])cc2n1)[N+](=O)[O-] (configuration not stated) | > 100 µM (inactive) | > 100 µM (inactive) | 78 µM (inactive) | > 100 µM (inactive) | > 100 µM (inactive) | 45.6 µM (inactive) | > 100 µM (inactive) | > 100 µM (inactive) | > 100 µM (inactive) | > 100 µM (inactive) | > 100 µM (inactive) | > 100 µM (inactive) | > 100 µM (inactive) | > 100 µM (inactive) | > 100 µM (inactive) | > 100 µM (inactive) | > 100 | 8.71 µM (inactive) |
| O=C(Nc1cc(Cl)c(Cl)cc1Cl)C(=O)C(C(=O)c1ccc2ccccc2c1)C1OC(=O)c2ccccc21 (configuration not stated) | 10.8 µM (inactive) | 15.5 µM (inactive) | 18 µM (inactive) | 16.1 µM (inactive) | 4.47 µM (inactive) | 4.66 µM (inactive) | 2.65 µM (inactive) | 13.6 µM (inactive) | 60.4 µM (inactive) | 10.3 µM (inactive) | 3.39 µM (inactive) | > 10 µM (inactive) | 18.2 µM (inactive) | 3.66 µM (inactive) | 11.6 µM (inactive) | 6.59 µM (inactive) | 17.3 | 12 µM (inactive) |
| N=C(N)NS(=O)(=O)c1ccc(Nc2c3ccccc3nc3c(C(=O)N4CCN(CCO)CC4)cccc23)cc1 | > 100 µM (inactive) | > 100 µM (inactive) | > 100 µM (inactive) | > 100 µM (inactive) | > 100 µM (inactive) | > 100 µM (inactive) | > 100 µM (inactive) | > 100 µM (inactive) | 2.7 µM (inactive) | > 100 µM (inactive) | > 100 µM (inactive) | > 100 µM (inactive) | > 100 µM (inactive) | > 100 µM (inactive) | > 100 µM (inactive) | > 100 µM (inactive) | > 100 | > 100 µM (inactive) |
| COc1ccc2nc3cc(Cl)ccc3c(NCCC(=O)OCC(O)C(O)C(O[C@H](C)C(=O)NC(C)C(=O)NC(CCC(N)=O)C(=O)OCc3ccccc3)C(C=O)NC(C)=O)c2c1 (some centres not stated) | 15 µM (inactive) | – | 20.5 µM (inactive) | 16.1 µM (inactive) | 18.2 µM (inactive) | 4.03 µM (inactive) | 22.5 µM (inactive) | 18 µM (inactive) | 18.8 µM (inactive) | 17.7 µM (inactive) | 16.8 µM (inactive) | 20 µM (inactive) | 17.8 µM (inactive) | 14.4 µM (inactive) | 24.7 µM (inactive) | 18.2 µM (inactive) | 20.7 | 14.5 µM (inactive) |
| CSc1nc2c(nc(N)n2C2OCC(O)C(O)C2O)c(=O)n1C (configuration not stated) | > 100 µM (inactive) | > 100 µM (inactive) | > 100 µM (inactive) | > 100 µM (inactive) | > 100 µM (inactive) | > 100 µM (inactive) | > 100 µM (inactive) | > 100 µM (inactive) | > 100 µM (inactive) | > 100 µM (inactive) | > 100 µM (inactive) | > 100 µM (inactive) | > 100 µM (inactive) | > 100 µM (inactive) | > 100 µM (inactive) | > 100 µM (inactive) | – | > 100 µM (inactive) |
| O=C1CNNC(Cn2nc(-c3ccccc3)c3ccccc3c2=O)=N1 | > 100 µM (inactive) | – | > 100 µM (inactive) | > 100 µM (inactive) | > 100 µM (inactive) | > 100 µM (inactive) | > 100 µM (inactive) | > 100 µM (inactive) | > 100 µM (inactive) | > 100 µM (inactive) | > 100 µM (inactive) | > 100 µM (inactive) | > 100 µM (inactive) | > 100 µM (inactive) | > 100 µM (inactive) | > 100 µM (inactive) | > 100 | > 100 µM (inactive) |
| COc1ccc(NC(=O)CC(=O)N/N=C/c2ccc(N(CCC#N)S(=O)(=O)c3ccccc3)cc2)cc1 | > 100 µM (inactive) | > 100 µM (inactive) | > 100 µM (inactive) | > 100 µM (inactive) | > 100 µM (inactive) | > 100 µM (inactive) | > 100 µM (inactive) | > 100 µM (inactive) | > 100 µM (inactive) | > 100 µM (inactive) | – | > 100 µM (inactive) | > 100 µM (inactive) | > 100 µM (inactive) | > 100 µM (inactive) | > 100 µM (inactive) | > 100 | > 100 µM (inactive) |
| OC1C2C=CCC1CCC2 (configuration not stated) | > 100 µM (inactive) | > 100 µM (inactive) | > 100 µM (inactive) | > 100 µM (inactive) | > 100 µM (inactive) | > 100 µM (inactive) | > 100 µM (inactive) | > 100 µM (inactive) | > 100 µM (inactive) | > 100 µM (inactive) | > 100 µM (inactive) | > 100 µM (inactive) | > 100 µM (inactive) | > 100 µM (inactive) | > 100 µM (inactive) | > 100 µM (inactive) | – | > 100 µM (inactive) |
| CCOC(=O)NN1C(=O)C(=P(c2ccccc2)(c2ccccc2)c2ccccc2)C(C(=O)OCC)=C1C | > 100 µM (inactive) | > 100 µM (inactive) | > 100 µM (inactive) | > 100 µM (inactive) | > 100 µM (inactive) | > 100 µM (inactive) | > 100 µM (inactive) | > 100 µM (inactive) | > 100 µM (inactive) | – | > 100 µM (inactive) | > 100 µM (inactive) | > 100 µM (inactive) | > 100 µM (inactive) | > 100 µM (inactive) | > 100 µM (inactive) | > 100 | > 100 µM (inactive) |
| Fc1cccc(C2SCc3nc4ccccc4n32)c1F (configuration not stated) | > 100 µM (inactive) | 84.3 µM (inactive) | 41.9 µM (inactive) | > 100 µM (inactive) | 82.8 µM (inactive) | 28.4 µM (inactive) | 41.6 µM (inactive) | 43.9 µM (inactive) | > 100 µM (inactive) | – | > 100 µM (inactive) | 42.1 µM (inactive) | 79.4 µM (inactive) | 49.7 µM (inactive) | > 100 µM (inactive) | 30.8 µM (inactive) | 59.3 | 37.2 µM (inactive) |
| COC(=O)CC(=O)C[P+](c1ccccc1)(c1ccccc1)c1ccccc1 | 121 µM (inactive) | > 218 µM (inactive) | – | > 218 µM (inactive) | > 218 µM (inactive) | 58.1 µM (inactive) | 180 µM (inactive) | 209 µM (inactive) | > 218 µM (inactive) | 196 µM (inactive) | 197 µM (inactive) | – | 121 µM (inactive) | 141 µM (inactive) | > 218 µM (inactive) | 116 µM (inactive) | 56.5 | 37.7 µM (inactive) |
